Values of other authors as cited in patent US20130144636A1, “Method and System for Predicting Adverse Drug Reactions Using BioAssay Data” (The Board of Trustees of the Leland Stanford, Junior, …, priority 2011, published 2013).
Like-named read-outs stand apart in the source and are kept apart here.

What was measured:
[1] = FDA drug label, DRUGDEX or literature case report
interleukin-1 (IL-1) = conditions: in vitro
murine bone marrow = conditions: in vivo murine bone marrow micronucleus tests
[2] = in vitro mutagenesis tests such as the Ames test
[3] = target: glutathione-S-transferase μ (GSTP1) (Homo sapiens, UniProt P09211)
Chain of glutathione-S-transferase μ (GSTP1) (P09211 2-210 limits assumed): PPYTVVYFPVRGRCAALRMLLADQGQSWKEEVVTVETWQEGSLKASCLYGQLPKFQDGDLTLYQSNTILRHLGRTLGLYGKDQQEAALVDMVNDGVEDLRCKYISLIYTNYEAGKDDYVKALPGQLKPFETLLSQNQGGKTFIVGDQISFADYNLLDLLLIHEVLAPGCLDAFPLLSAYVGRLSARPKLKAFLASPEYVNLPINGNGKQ

## Oc1c(I)cc(Cl)c2cccnc12 [clioquinol]
[1]
  known adverse drug reaction in humans: associated with subacute myelo-optic neuropathy (SMON) syndrome

## CC(=O)Oc1cccc2c1C(=O)c1c(OC(C)=O)cc(C(=O)O)cc1C2=O [diacerein]
interleukin-1 (IL-1)
  inhibition of IL-1 synthesis: directly inhibits the synthesis

## Oc1ccc(O)cc1 [hydroquinone]
Murine bone marrow
  genotoxic carcinogenic activity: genotoxic carcinogenic activity
Murine bone marrow; listed as Hydroquinone
  genotoxic carcinogenic activity: carcinogenic
[2]
  mutagenic activity in vitro: but not in in vitro mutagenesis tests
[2]; listed as Hydroquinone
  mutagenic activity in vitro: inactive

## CC(=O)Oc1ccccc1C(=O)Nc1ncc([N+](=O)[O-])s1 [nitazoxanide]
[3]
  inhibition of enzymatic activity: inhibit the enzymatic activity
